Results published in ChEMBL document CHEMBL1131715 (Bioorg Med Chem Lett, 1999).
pKi: −log10 of the molar value.

Test: Inhibitory activity against zinc-dependent Glutamate Carboxypeptidase G

For CCCCP(O)(=S)N[C@@H](CCC(=O)O)C(=O)O (some centres not stated), the pKi was 6.58.
Work on O=C(O)CC[C@H](NP(O)(=S)c1ccccc1)C(=O)O (some centres not stated) yielded a pKi of 5.49.
